According to patent publication US4820717A, “Antimicrobial aromatic derivatives substituted by an (omega amino) alkanol group and compositions containing them” (priority 1985, dated 1989):
Converted amounts (≈) assume the structure as drawn.

How the values were obtained:
[1] = tested on: Torulopsis glabrata 072023; test: Antifungal activity (MFC), strain 4; assay type: cell-based; conditions: 20 min; yeast strain 4; read-out: Minimum fongicidal concentration (MFC)
Description: (§1) A bacterial inoculum is placed in contact with different dilutions of the product to be tested, and this for a limited period of time. At the end of contact, an aliquot part of the mixture bacterial suspension/product is deposited on the surface of an agar culture medium containing an agent neutralizing the antibacterial activity of the product. The bactericidal concentration retained is the smallest concentration of the product from which bacteria stop growing. Said concentration is expressed in μg/ml.
(§2) Plates equipped with cupules receive different dilutions of the product to be analyzed. These dilutions are placed in contact with the different bacterial suspensions by means of a multiple-center inoculator. After 20 minutes of contact, aliquot parts are transferred by means of said inoculator on the surface of an agar medium (TSA) in Petri dishes, containing an activity-neutralizing agent, namely 20 g of lubrol W, 25 g of Tween 80 and 2.5 g of sodium thiosulfate in 1000 ml of TSA (Difco). The efficiency of the neutralizing agent is controlled for each product to be analyzed by depositing on the surface of the culture medium an aliquot part of the dilution of the product to be analyzed. After drying, the corresponding inoculum is deposited in the same place. An inoculum control is performed on an agar medium with or without neutralizing agent. Readings are taken after 48 hours of incubation at 37° C.
(§3) The antifungal activity of the products according to the invention was also determined with the aforedescribed method.
(§4) The fungal strains selected for the analysis are:
(§5) These strains are supported on a Sabouraud Dextrose agar medium commercialized by Difco; the technique used is the same as that used in the analysis of the antibacterial activity. After 48 hours of culture at 37° C., the microbial growth is collected with glass beads and 5 ml of diluent containing 1 g of tryptone and 8.5 g of sodium chloride in 1000 ml of distilled water; 5 ml of the diluent are then added. […] A 1/100th dilution of this suspension, observed between slides under a microscope 40-lens, should show 10 cells per frame, this corresponding to 1,000,000 yeasts per ml.

[2] = tested on: Encapsulated klebsiella pneumoniae R030; test: Bactericidal activity (MBC), strain 2; assay type: cell-based; conditions: 20 min, strain 2, 20 minutes of contact, read-out: Minimum bactericidal concentration (MBC)
Description: (§6) The bactericidal activity of the products according to the invention has been analyzed on various strains by the method described hereafter:
as §1
(§7) The bacterial strains selected for the analysis are:
2--Encapsulated klebsiella pneumoniae R030;
(§8) The second strain is supported on a Worgel Fergusson medium, the other strains being supported on Tryptic Soy Agar-Difco (TSA) commercialized by Difco.
(§9) After a 24-hour culture period at 37° C., the microbial growth is collected by means of glass beads and of 10 ml of diluent containing 1 g of tryptone and 8.5 g of sodium chloride in 1000 ml of distilled water. The formed suspension is stirred and the percentage of light transmission at 620 nm is measured with a spectrophotometer:
(§10) The bacterial inoculum corresponds to a 1/20th dilution of this bacterial suspension.
as §2

[3] = tested on: Candida albicans CNCM 1180; test: Antifungal activity (MFC), strain 1; assay type: cell-based; conditions: 20 min; yeast strain 1; read-out: Minimum fongicidal concentration (MFC)
Description: as §1, §2, §3, §4
1--Candida albicans CNCM 1180;
as §5

[4] = tested on: Streptococcus faecalis CNCM 5855; test: Bactericidal activity (MBC), strain 4; assay type: cell-based; conditions: Enterococcus faecalis, CNCM5855, 20 min; strain 4, 20 minutes of contact; read-out: Minimum bactericidal concentration (MBC)
Description: as §6, §1, §7
4--Streptococcus faecalis CNCM 5855;
as §8, §9, §10, §2

guinea-pig skin [5] = test: Preliminary skin tolerance in the guinea-pig; assay type: in vivo; conditions: 0.2 ml on shorn skin once a day, six days out of seven, three weeks
Protocol: (§11) The tolerance of the products according to the invention was tested in the guinea-pig. The animals are shorn on both sides of the middle line of the back, the shearing being kept up every other day. Batches of 6 animals receive, on the shorn part, 0.2 ml of an aqueous or alcoholic solution of the product according to the invention. When these products are in alcoholic solution, one control batch of animals receives the alcohol on one side.
To study the preliminary skin tolerance, the treatment is applied once a day, six days out of seven, for three weeks. The observations made of the skin are concerned with the presence of erythema, skin eruptions or hyperkeratosis, the intensity of which is graduated according to a preset scale.

Candida tropicalis 3834 = test: Antifungal activity (MFC), strain 2; assay type: cell-based; conditions: 20 min; yeast strain 2; read-out: Minimum fongicidal concentration (MFC)
Description: as §1, §2, §3, §4
2--Candida tropicalis 3834;
as §5

[6] = Acute toxicity by oral route in mice; conditions: mouse, in vivo, per os, male CD1 mice, 14 days observation
Protocol: Acute toxicity was tested by oral route in mice. This test was carried out with male mice of CD1 strain, obtained from the Charles Reever breeding farm. Each batch was composed of 5 animals of body weight varying between 24 and 30 g kept in the same cage. The animals were kept fasting for 6 hours before the treatment. For every test, the product, placed in suspension in a 10% solution of gum arabic, was administered by forcible feeding with an oesophageal probe. Food was then served to the animals 4 hours after the forcible feeding and the animals were kept under observation for a period of 14 days after the administration. During that period, the death rate is recorded for each batch of animals used in the experiment and, wherever possible, the LD50 is determined by the method of J. T. Litchfield and F. Wilcoxon, J. Pharmacol. 1949, 95, 99-113.
The results are given in mg of substance tested per kg of body weight. They are compiled in Table III below.

[7] = tested on: Pseudomonas aeruginosa CNCM A22; test: Bactericidal activity (MBC), strain 3; assay type: cell-based; conditions: CNCMA22, 20 min, strain 3, 20 minutes of contact, read-out: Minimum bactericidal concentration (MBC)
Description: as §6, §1, §7
3--Pseudomonas aeruginosa CNCM A22;
as §8, §9, §10, §2

guinea-pig = test: Phototoxic or photoallergic effect on the guinea-pig; assay type: in vivo
Description: The products according to the invention have also been tested for a phototoxic or photoallergic effect on the guina-pig. The technique used is that of J. Unkovic, G. Mazue and J. Girard, in "Sciences et Techniques de l'Animal de Laboratoire", 1983, 8 (3), 149-160. This is an adaptation of the techniques described by L. C. Harber et al., Arch. Dermatol., 1967, 96, 646-656 and L. J. Vinson et al., Arch. Dermatol., 1966, 17, 123-130.

guinea-pig skin [8] = test: Skin sensitization test in the guinea-pig; assay type: in vivo; conditions: one week treatment after two weeks' rest
Protocol: as §11, with “side. The skin sensitization test is performed on the same animals after two weeks' rest. The treatment lasts one week, it is identical to the preceding one. The evaluation is based on the same criteria and on the same scale as used to determine the local tolerance.” for “side.”

[9] = tested on: Staphylococcus aureus CNCM 53154; test: Bactericidal activity (MBC), strain 5; assay type: cell-based; conditions: CNCM53154, 20 min, strain 5, 20 minutes of contact, read-out: Minimum bactericidal concentration (MBC)
Description: as §6, §1, §7
5--Staphylococcus aureus CNCM 53154.
as §8, §9, §10, §2

[10] = tested on: Escherichia Coli CNCM 54125; test: Bactericidal activity (MBC), strain 1; assay type: cell-based; conditions: 20 min, strain 1, 20 minutes of contact, read-out: Minimum bactericidal concentration (MBC)
Description: as §6, §1, §7
1--Escherichia Coli CNCM 54125;
as §8, §9, §10, §2

Candida parakruzei 3918 = test: Antifungal activity (MFC), strain 3; assay type: cell-based; conditions: 20 min; yeast strain 3; read-out: Minimum fongicidal concentration (MFC)
Description: as §1, §2, §3, §4
3--Candida parakruzei 3918;
as §5

lymphoma cells of mice = conditions: cited from earlier work

Row | Compound | MFC [1] | MBC [2] | MFC [3] | MBC [4] | products found to have a bad tolerance (guinea-pig skin [5]) | MFC (Candida tropicalis 3834) | LD50 at 336 h [6] | MBC [7] | products found to have a phototoxic or photoallergic effect (guinea-pig) | products found to have a sensibilizing effect (guinea-pig skin [8]) | MBC [9] | MBC [10] | MFC (Candida parakruzei 3918) | effect on the cellular division of the lymphoma cells (lymphoma cells of mice)
1 | CC1CCN(CCCCCCC(CO)c2cccc3ccccc23)CC1 (stereo not shown) [SR 43 293 A] | 1000 µg/mL (≈ 2830 µM) | 200 µg/mL (≈ 566 µM) | 500 µg/mL (≈ 1410 µM) | 200 µg/mL (≈ 566 µM) | None | 200 µg/mL (≈ 566 µM) | ≤ 250 mg/kg | 200 µg/mL (≈ 566 µM) | None | None | 200 µg/mL (≈ 566 µM) | 200 µg/mL (≈ 566 µM) | 500 µg/mL (≈ 1410 µM) | –
2 | OCC(CCN1CCCCC1)c1cccc2ccccc12 (stereo not shown) [SR 43 077 A] | 5000 µg/mL (≈ 17600 µM) | 600 µg/mL (≈ 2120 µM) | 1000 µg/mL (≈ 3530 µM) | 600 µg/mL (≈ 2120 µM) | None | 1000 µg/mL (≈ 3530 µM) | 300 to 400 mg/kg | 800 µg/mL (≈ 2820 µM) | None | None | 600 µg/mL (≈ 2120 µM) | 600 µg/mL (≈ 2120 µM) | 1000 µg/mL (≈ 3530 µM) | –
3 | OCCc1ccc2ccccc2c1 [2-naphtyl ethanol] | – | – | – | – | – | – | – | – | – | – | – | – | – | inhibits the cellular division of the lymphoma cells of mice
4 | CN(C)CCC(CO)c1cccc2ccccc12 (stereo not shown) [SR 42 643 A] | – | 5000 µg/mL (≈ 20500 µM) | – | 2000 µg/mL (≈ 8220 µM) | None | – | 400 mg/kg | 1000 µg/mL (≈ 4110 µM) | None | None | 1000 µg/mL (≈ 4110 µM) | 5000 µg/mL (≈ 20500 µM) | – | –
5 | CC(C)N(CCC(CO)c1cccc2ccccc12)Cc1ccccc1 (stereo not shown) [SR 43 292 A] | 2000 µg/mL (≈ 5760 µM) | 300 µg/mL (≈ 863 µM) | 1000 µg/mL (≈ 2880 µM) | 300 µg/mL (≈ 863 µM) | None | 1000 µg/mL (≈ 2880 µM) | 500 to 750 mg/kg | 300 µg/mL (≈ 863 µM) | None | None | 300 µg/mL (≈ 863 µM) | 300 µg/mL (≈ 863 µM) | 1000 µg/mL (≈ 2880 µM) | –
